Patent US8354398B2, “Substituted isoxazole compounds” (Bristol-Myers Squibb Company, priority 2009, dated 2013)

Key:
[1] = system: experimental autoimmune encephalomyelitis (clinical score); test: Mouse Experimental Autoimmune Encephalomyelitis Assay (EAE); assay type: in vivo, C57BL/6 mice; conditions: for Clinical Score on day 21, Mean: C57BL/6 female mice, vehicle mean 2.79
[2] = biological target: S1P1 (Homo sapiens, UniProt P21453); test: S1P1 Binding Assay (33P-S1P ligand competition, membranes from CHO cells); set-up: expressed in transfected cells; host or cells: CHO cells; conditions: membranes of CHO cells expressing human S1P1; 0.03 nM 33P-S1P; 60 min room temperature
Chain of S1P1 (P21453 whole entry): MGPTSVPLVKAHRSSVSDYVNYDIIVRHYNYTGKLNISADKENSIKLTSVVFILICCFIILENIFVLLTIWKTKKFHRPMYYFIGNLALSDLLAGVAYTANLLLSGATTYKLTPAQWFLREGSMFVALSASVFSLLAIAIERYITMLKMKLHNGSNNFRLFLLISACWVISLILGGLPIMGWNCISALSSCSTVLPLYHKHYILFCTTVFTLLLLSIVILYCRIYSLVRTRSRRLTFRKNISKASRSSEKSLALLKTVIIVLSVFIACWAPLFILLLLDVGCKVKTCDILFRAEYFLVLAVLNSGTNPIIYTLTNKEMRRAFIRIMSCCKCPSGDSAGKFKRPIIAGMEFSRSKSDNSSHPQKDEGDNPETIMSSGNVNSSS
In short: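 Membranes from CHO cells expressing human S1P1 (2 μg/well) were incubated with 0.03 nM ^33P-S1P and test compound for 60 min at room temperature. Bound radioactivity was collected on GF/B filters and counted. IC50 is the concentration reducing specific radioligand binding by 50%.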

For O=C(O)C1CN(Cc2ccc(-c3noc(-c4onc(-c5ccccc5)c4C(F)(F)F)n3)cc2)C1 [Example 1, 1-(4-(5-(3-Phenyl-4-(trifluoromethyl)isoxazol-5-yl)-1,2,4-oxadiazol-3-yl)benzyl)azetidine-3-carboxylic acid], which “Clinical Score on day 21, Mean” value ([1]; 0.02 mg/kg once daily from 1 day after immunization) is on record?
Its value is 1.75.

What about the “Clinical Score on day 21, Mean” value ([1]; 0.2 mg/kg once daily from 1 day after immunization) of the same molecule?
Its value is 1.13.

And the “Clinical Score on day 21, Mean” value ([1]; 2.0 mg/kg once daily from 1 day after immunization)?
Its value is 1.15.

What about the “disease progression as determined by the clinical scores” value ([1]; C57Bl/6 mice, prophylactic oral dosing) of the same molecule?
The value was “inhibits disease progression”.

What about the IC50 [2] of the same molecule?
The IC50 was 0.091 nM.
